{"source": "patent US5677148A", "about": "(priority 1995, dated 1997)", "tested_on": "A431 cells", "test": "Sensitivity of DAB-EGF chimeric toxin cytotoxicity to chloroquine ([3H]leucine incorporation)", "conditions": "for activity at 10 µM: Homo sapiens; for Percent of Control Incorporation: 20-hour incubation", "note": "Like-named read-outs stand apart in the source and are kept apart here.", "description": "To determine if the cytotoxicity of DAB486 EGF and DAB389 EGF is also dependent upon the same pathway, A431 cells were plated in sextuplicate wells of 96 well plates containing DAB486 EGF, DAB389 EGF or DMEM+10% FCS in the absence or presence of chloroquine (10^-5 M) (Sigma). […] Following a 20-hour incubation at 37° C., the cells were labeled with [^3 H] leucine, trypsinized, harvested onto glass fiber filter mats and counted."}
{"smiles": "CCN(CC)CCCC(C)Nc1ccnc2cc(Cl)ccc12", "note": "(stereo not shown) [Chloroquine]", "values": [{"measurement": "activity at 10 µM", "setting": "A-431, read-out: Percent of Control Incorporation, chloroquine 10^-5 M, DAB389 EGF concentration 0, 20-hour incubation at 37° C., [3H]leucine, mean of three experiments", "result": 73, "unit": "%"}, {"measurement": "activity at 10 µM", "setting": "A-431, read-out: Percent of Control Incorporation, chloroquine 10^-5 M, DAB486 EGF concentration 0, 20-hour incubation at 37° C., [3H]leucine, mean of three experiments", "result": 86, "unit": "%"}, {"measurement": "Percent of Control Incorporation", "setting": "chloroquine 10^-5 M with DAB389 EGF 10^-11 M, [3H]leucine (no addition: 4)", "result": 61, "unit": "%"}, {"measurement": "Percent of Control Incorporation", "setting": "chloroquine 10^-5 M with DAB389 EGF 10^-12 M, [3H]leucine (no addition: 57)", "result": 100, "unit": "%"}, {"measurement": "Percent of Control Incorporation", "setting": "chloroquine 10^-5 M with DAB486 EGF 10^-8 M, [3H]leucine (no addition: 5)", "result": 60, "unit": "%"}, {"measurement": "Percent of Control Incorporation", "setting": "chloroquine 10^-5 M with DAB486 EGF 10^-9 M, [3H]leucine (no addition: 25)", "result": 96, "unit": "%"}, {"measurement": "Effect on the cytotoxicity of DT-EGF chimeric toxins", "setting": "chloroquine 10^-5 M, A431 cells, DAB486 EGF or DAB389 EGF", "result": "blocks the cytotoxicity"}]}
